# Reference: PMC4410182 (Nature communications, 2015)
# Assays:
# [1] = molecular target: T1, A. borkumensis YdaH (Alcanivorax borkumensis, UniProt Q0VR69); experiment: isothermal titration calorimetry; format: binding
# T1 sequence (Q0VR69 1-492): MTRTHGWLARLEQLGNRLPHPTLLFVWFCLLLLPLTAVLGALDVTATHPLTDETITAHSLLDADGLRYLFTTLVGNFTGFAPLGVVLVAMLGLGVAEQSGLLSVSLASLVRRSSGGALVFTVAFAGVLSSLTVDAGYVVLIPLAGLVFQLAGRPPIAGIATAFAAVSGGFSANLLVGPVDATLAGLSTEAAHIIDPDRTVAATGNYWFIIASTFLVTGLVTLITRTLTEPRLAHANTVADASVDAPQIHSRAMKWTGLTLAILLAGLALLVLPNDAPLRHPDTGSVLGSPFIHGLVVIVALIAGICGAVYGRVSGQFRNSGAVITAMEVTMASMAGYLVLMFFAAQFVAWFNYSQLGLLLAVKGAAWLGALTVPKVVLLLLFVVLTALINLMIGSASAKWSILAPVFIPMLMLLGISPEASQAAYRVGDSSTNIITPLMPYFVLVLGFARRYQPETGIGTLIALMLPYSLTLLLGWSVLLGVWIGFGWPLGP
# [2] = molecular target: A. borkumensis YdaH transporter (Alcanivorax borkumensis) (UniProt Q0VR69); experiment: SEC
Kd [1] [nM],Molecule,stoichiometry N [2]
600 ± 20,Nc1ccc(S(=O)(=O)Nc2nccs2)cc1 [sulfathiazole],–
410 ± 30,Cc1cc(C)nc(NS(=O)(=O)c2ccc(N)cc2)n1 [sulfamethazine],–
–,A. borkumensis YdaH transporter (from UniProt Q0VR69 1-492) (natural protein),2
7040 ± 540,Nc1ccc(S(=O)(=O)Nc2ncccn2)cc1 [sulfadiazine],–
